Source: PMC6437697 (Journal of Medicinal Chemistry, 2019)

What was measured:
Assay in all cases: KINOMEscan
Format in all cases: binding
Conditions in all cases: read-out: % control activity remaining
ADCK3 = target: T1, ADCK3 (Homo sapiens, UniProt Q8NI60)
T1 construct: purchased Eurofins DiscoverX KINOMEscan

ASK1 = target: T2, ASK1 (Homo sapiens, UniProt Q99683)
T2 construct: purchased Eurofins DiscoverX KINOMEscan
T2 sequence (Q99683 1-1374): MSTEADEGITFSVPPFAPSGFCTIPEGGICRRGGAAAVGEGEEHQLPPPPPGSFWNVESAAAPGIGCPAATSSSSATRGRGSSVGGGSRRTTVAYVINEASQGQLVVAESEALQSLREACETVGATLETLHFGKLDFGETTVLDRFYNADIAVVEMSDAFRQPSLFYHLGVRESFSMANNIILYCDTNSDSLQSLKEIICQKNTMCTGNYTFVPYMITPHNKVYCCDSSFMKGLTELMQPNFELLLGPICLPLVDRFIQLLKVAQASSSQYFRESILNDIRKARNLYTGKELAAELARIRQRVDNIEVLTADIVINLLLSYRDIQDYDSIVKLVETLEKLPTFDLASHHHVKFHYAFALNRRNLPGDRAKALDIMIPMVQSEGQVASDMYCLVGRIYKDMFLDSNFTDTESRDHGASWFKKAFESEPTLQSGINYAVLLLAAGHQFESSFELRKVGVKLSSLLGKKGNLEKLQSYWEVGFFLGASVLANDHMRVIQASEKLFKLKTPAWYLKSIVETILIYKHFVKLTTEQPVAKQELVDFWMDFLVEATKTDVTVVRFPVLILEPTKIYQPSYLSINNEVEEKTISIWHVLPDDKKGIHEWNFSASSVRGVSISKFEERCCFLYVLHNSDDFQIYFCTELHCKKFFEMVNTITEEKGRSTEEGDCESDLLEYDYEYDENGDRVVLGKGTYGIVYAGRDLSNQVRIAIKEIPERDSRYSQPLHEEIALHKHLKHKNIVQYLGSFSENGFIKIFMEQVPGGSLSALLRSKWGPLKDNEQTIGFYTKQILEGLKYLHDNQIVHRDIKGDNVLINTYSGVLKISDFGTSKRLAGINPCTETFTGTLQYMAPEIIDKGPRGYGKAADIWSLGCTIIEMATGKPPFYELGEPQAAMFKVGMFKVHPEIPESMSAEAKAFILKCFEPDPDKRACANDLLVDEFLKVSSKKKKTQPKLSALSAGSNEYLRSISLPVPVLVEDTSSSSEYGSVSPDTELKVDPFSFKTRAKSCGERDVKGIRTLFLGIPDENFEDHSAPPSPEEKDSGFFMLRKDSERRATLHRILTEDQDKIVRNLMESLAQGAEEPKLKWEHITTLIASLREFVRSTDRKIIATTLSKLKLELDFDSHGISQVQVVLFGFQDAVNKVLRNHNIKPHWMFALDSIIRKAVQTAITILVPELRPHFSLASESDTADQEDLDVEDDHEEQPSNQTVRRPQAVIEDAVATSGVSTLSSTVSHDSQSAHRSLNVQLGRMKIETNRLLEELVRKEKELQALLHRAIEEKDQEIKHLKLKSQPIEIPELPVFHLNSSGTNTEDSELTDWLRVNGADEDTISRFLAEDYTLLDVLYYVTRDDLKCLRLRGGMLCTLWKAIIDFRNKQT

FER = target: T3, FER (Homo sapiens, UniProt P16591)
T3 construct: purchased Eurofins DiscoverX KINOMEscan

MEK1 = target: T4, MEK1 (Homo sapiens, UniProt Q02750)
T4 construct: purchased Eurofins DiscoverX KINOMEscan

PCTK3 = target: T5, PCTK3 (Homo sapiens, UniProt Q07002)
T5 construct: purchased Eurofins DiscoverX KINOMEscan

PKN2 = target: T6, PKN2 (Homo sapiens, UniProt Q16513)
T6 construct: purchased Eurofins DiscoverX KINOMEscan

PRKR = target: T7, PRKR (Homo sapiens, UniProt P19525)
T7 construct: purchased Eurofins DiscoverX KINOMEscan

STK36 = target: T8, STK36 (Homo sapiens, UniProt Q9NRP7)
T8 construct: purchased Eurofins DiscoverX KINOMEscan
T8 sequence (Q9NRP7 1-1315): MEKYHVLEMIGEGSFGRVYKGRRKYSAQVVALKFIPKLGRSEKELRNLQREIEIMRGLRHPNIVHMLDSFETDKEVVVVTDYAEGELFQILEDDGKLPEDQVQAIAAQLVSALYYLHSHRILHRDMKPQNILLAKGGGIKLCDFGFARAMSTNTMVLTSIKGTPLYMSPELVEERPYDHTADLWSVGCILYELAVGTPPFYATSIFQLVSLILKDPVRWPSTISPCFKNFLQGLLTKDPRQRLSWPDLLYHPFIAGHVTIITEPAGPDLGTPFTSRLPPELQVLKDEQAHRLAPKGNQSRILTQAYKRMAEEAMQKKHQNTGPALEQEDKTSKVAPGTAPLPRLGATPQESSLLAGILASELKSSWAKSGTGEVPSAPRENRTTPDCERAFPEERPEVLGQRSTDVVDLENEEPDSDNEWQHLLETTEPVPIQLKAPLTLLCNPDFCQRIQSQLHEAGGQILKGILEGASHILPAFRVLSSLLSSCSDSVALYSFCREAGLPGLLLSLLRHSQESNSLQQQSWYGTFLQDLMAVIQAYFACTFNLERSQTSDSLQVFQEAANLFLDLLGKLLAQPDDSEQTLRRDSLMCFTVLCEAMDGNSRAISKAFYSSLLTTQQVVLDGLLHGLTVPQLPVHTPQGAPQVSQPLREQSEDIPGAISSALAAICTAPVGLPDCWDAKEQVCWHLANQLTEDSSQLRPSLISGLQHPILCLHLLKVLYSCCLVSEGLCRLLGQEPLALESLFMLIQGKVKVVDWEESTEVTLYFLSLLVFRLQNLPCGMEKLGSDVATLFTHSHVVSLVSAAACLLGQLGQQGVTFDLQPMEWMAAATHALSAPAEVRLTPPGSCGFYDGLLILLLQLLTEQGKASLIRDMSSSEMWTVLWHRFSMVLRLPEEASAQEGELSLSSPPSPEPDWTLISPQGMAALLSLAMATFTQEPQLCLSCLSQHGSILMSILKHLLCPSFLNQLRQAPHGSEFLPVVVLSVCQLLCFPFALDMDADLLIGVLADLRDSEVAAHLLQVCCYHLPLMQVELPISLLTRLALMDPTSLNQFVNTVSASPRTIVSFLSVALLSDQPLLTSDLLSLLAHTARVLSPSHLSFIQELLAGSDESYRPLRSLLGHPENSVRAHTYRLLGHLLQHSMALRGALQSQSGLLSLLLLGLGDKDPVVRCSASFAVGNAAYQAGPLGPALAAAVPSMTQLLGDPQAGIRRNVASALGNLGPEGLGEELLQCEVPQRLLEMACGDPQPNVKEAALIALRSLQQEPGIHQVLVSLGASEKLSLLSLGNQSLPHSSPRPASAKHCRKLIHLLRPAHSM

T5 sequence (Q07002 whole entry): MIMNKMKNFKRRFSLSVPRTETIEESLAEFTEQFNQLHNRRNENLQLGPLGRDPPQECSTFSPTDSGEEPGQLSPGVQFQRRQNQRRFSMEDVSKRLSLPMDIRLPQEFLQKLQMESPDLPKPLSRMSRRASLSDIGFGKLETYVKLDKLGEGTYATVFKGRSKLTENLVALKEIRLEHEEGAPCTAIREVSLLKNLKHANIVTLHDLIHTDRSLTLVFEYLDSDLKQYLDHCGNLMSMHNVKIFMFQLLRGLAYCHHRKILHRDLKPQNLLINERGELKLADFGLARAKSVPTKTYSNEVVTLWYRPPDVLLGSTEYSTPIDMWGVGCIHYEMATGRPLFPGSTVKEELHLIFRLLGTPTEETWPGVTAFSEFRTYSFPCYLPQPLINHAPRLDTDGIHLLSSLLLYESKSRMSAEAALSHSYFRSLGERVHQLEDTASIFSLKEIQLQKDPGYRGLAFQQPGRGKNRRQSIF
T4 sequence (Q02750 whole entry): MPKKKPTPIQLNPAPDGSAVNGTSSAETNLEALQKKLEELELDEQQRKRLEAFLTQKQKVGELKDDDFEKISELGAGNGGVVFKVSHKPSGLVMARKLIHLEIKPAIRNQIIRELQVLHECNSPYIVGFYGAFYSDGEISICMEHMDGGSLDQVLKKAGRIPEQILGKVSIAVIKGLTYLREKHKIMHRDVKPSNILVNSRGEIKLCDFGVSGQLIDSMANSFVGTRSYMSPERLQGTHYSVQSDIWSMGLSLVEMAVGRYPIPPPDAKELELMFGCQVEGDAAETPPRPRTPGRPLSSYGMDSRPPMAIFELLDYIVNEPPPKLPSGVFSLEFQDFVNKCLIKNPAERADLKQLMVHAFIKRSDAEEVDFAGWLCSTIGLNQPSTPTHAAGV
T6 sequence (Q16513 whole entry): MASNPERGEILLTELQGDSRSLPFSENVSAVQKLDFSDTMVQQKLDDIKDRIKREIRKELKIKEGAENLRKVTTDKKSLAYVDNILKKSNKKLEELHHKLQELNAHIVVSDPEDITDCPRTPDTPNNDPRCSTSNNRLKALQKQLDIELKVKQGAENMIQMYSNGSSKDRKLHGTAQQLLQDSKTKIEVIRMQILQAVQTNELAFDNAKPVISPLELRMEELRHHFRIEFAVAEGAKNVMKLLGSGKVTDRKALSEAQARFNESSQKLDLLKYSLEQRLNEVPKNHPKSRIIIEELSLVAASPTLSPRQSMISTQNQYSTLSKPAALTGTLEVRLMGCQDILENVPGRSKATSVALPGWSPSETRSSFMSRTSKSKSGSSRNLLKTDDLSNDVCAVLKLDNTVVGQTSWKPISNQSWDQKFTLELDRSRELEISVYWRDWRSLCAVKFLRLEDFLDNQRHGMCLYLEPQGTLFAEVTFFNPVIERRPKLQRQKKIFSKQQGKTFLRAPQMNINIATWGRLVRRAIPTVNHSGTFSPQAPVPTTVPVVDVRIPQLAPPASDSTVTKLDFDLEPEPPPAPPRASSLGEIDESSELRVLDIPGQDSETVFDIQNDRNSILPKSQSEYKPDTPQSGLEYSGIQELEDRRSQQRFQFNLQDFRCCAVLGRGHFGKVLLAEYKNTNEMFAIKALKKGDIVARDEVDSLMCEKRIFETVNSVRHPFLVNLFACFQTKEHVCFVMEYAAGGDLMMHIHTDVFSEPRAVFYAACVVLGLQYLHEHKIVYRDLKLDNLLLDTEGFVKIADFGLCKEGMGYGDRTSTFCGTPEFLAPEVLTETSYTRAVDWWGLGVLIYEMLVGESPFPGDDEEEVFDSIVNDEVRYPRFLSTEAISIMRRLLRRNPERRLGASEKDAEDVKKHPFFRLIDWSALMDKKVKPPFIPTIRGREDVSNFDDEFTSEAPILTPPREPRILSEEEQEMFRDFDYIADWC
T3 sequence (P16591 whole entry): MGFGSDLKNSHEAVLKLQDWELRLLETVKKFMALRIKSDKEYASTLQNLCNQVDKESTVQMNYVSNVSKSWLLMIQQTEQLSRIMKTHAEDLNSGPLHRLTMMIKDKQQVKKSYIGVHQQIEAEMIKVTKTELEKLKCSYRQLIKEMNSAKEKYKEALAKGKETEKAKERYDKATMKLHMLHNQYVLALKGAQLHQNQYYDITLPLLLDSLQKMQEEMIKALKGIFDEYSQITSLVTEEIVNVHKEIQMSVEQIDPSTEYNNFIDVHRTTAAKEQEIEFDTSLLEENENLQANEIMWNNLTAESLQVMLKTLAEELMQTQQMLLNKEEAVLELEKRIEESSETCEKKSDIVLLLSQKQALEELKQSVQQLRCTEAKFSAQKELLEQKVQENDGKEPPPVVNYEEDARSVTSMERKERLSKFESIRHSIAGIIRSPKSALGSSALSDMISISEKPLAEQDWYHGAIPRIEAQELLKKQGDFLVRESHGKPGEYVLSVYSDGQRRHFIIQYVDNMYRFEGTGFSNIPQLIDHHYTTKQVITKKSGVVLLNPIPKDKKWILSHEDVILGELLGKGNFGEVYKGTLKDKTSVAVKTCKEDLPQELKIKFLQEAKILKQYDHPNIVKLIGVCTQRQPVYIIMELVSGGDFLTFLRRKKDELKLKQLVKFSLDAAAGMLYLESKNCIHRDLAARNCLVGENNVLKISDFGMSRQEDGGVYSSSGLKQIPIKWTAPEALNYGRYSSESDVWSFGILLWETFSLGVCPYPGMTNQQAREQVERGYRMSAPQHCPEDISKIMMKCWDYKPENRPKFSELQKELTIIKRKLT
T7 sequence (P19525 whole entry): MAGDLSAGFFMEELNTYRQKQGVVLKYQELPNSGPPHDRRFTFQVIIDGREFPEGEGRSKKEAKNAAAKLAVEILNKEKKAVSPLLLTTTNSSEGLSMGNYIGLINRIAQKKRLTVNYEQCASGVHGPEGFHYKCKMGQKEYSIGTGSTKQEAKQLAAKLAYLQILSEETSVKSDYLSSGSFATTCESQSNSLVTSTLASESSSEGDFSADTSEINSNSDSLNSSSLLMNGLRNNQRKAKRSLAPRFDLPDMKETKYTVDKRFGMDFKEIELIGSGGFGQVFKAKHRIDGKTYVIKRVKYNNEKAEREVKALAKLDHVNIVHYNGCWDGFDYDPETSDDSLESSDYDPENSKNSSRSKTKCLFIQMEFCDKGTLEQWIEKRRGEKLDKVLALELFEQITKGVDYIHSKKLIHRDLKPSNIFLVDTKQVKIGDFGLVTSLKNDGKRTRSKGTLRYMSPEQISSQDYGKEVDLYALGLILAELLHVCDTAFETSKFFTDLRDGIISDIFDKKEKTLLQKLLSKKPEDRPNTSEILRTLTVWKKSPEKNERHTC
T1 sequence (Q8NI60 163-647): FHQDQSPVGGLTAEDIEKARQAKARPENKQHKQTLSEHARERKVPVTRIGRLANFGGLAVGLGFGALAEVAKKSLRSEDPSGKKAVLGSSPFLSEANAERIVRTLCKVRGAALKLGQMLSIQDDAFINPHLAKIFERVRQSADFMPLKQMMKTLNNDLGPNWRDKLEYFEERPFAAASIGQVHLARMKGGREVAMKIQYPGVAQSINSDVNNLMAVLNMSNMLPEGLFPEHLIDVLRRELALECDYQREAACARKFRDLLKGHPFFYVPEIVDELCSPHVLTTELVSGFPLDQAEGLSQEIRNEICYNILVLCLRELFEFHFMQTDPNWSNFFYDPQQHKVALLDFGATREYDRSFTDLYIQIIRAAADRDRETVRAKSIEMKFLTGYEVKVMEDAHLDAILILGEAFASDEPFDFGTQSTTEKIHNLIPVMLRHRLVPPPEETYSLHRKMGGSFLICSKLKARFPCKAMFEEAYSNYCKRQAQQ

Row | SMILES | remaining binding at 1 µM (ADCK3) [%] | remaining binding at 1 µM (ASK1) [%] | remaining binding at 1 µM (FER) [%] | remaining binding at 1 µM (MEK1) [%] | remaining binding at 1 µM (PCTK3) [%] | remaining binding at 1 µM (PKN2) [%] | remaining binding at 1 µM (PRKR) [%] | remaining binding at 1 µM (STK36) [%]
1 | CN1CCC(CNc2cc(Cl)nn3c(-c4cc5nc(Nc6ccccc6)[nH]c5cc4F)cnc23)CC1 [compound 31, 6-Chloro-3-(6-fluoro-2-(phenylamino)-1H-benzo[d]imidazol-5-yl)-N-((1-methylpiperidin-4-yl)methyl)imidazo[1,2-b]pyridazin-8-amine] | 85 | 100 | 82 | 80 | 88 | 98 | 81 | 93
2 | O=C(CN1CCOCC1)N[C@H]1CC[C@H](Nc2cc(Cl)nn3c(-c4ccc5[nH]ncc5c4)cnc23)CC1 [compound 26] | 88 | 100 | 100 | 93 | 80 | 100 | 97 | 95
3 | Clc1cc(NCC2CC2)c2ncc(-c3ccc4[nH]ncc4c3)n2n1 [compound 2, 6-Chloro-N-(cyclopropylmethyl)-3-(1H-indazol-5-yl)imidazo[1,2-b]pyridazin-8-amine] | 79 | 70 | 98 | 95 | 79 | 100 | 97 | 91
